In brackets after ≈: the same amount, converted by molar mass. Like-named read-outs stand apart in the source and are kept apart here.
What was measured:
[1] = cited from earlier work
[2] = cited from earlier work; remark: listed apart in the source
[3] = tested on: conditioned place preference; assay: Psychological dependence on tramadol by change in conditioned place preference (CPP); format: in vivo, Sprague-Dawley rats; conditions: rats; for Change (min) in the time stayed in non-preferred compartment / Change (min) in the time stayed in preferred compartment: post- vs pre-conditioning, 15 minutes
Protocol: 3. Test for Measuring Psychological Dependence on Tramadol by Assessment of Dependence Potential
In order to measure psychological dependence which is one of the side effects of tramadol, a change in conditioned place preference (CPP) was measured. Conditioned place preference boxes are divided into three boxes, that is, a white box, a black box and a gray box, as shown in FIG. 8. The gray box is a meddle portion in which an animal can choose between the white box and the black box, and the gray box is […]. The black box has a bottom composed of stainless steel rods having a diameter of 4.8 mm and a spacing of 16 mm, and the white box has a bottom composed of stainless steel meshes having a size of 1.25×1.25 cm. The gray box is 12 cm in width, 22 cm in length, and 21 cm in height, and the white box and the black box are 28 cm in width, 21 cm in length, and 21 cm in height.
A series of test procedures are as follows. 5-Week-old male Sprague-Dawley rats (SD rats) were purchased and acclimated for one week. Then, on days 1, 2 and 3 of the test (preconditioning step), in a state in which each rat was not treated with a drug or normal saline for injection, each rat was placed in the gray compartment, and then the door was opened and the time that each rat stayed in each compartment was measured for 15 minutes. Then, based on the mean of the measurement results, the compartment preferred by the rats in the preconditioning step (that is, the compartment in which the rats stayed longer, among the white compartment and the black compartment) was determined.
The next step is a conditioning step corresponding to day 4 to day 11. On days 4, 6, 8 and 10, the corresponding dose of each of the Test Example and the Comparative Examples was administered by intraperitoneal injection to each rat, and after 30 minutes, the rats were adapted to the non-preferred compartment for 30 minutes so as to allow the rats to remember the non-preferred compartment in association with tramadol. On the remaining days 5, 7, 9 and 11, normal saline for injection was administered by intraperitoneal injection to the rats, and after 30 minutes, the rats were adapted to the preferred compartment for 30 minutes so as to allow the rats to remember the preferred compartment in association with the saline solution. On day 12 corresponding to a final step (post-conditioning step), in a state in which neither the drug nor normal saline for injection was administered to the rats, the rats were placed in the gray compartment, and then the door was opened and the time that the rats stayed in each compartment was measured for 15 minutes (see Table 7).
The difference between the time that the rats stayed in the tramadol-associated place (non-preferred compartment) in the post-conditioning step and the time that the rats stayed in the non-preferred compartment in the pre-conditioning step indicates the tramadol-induced change in conditioned place preference, that is, psychological dependence on the drug.
Next, based on the test results, the standardized J-T statistic and the significance level (p-value) were confirmed using a Jonckheere-terpstra test which is a non-parametric statistical method.

[4] = tramadol 2.6 mg/kg intraperitoneal on days 4, 6, 8, 10
[5] = tramadol 3.9 mg/kg intraperitoneal on days 4, 6, 8, 10
[6] = tramadol 10.3 mg/kg intraperitoneal on days 4, 6, 8, 10

SMILES	solubility in water ([1]; 20° C.)	in vivo half-life [2]	Change (min) in the time stayed in non-preferred compartment [3, 4]	Change (min) in the time stayed in preferred compartment [3, 4]	Change (min) in the time stayed in non-preferred compartment [3, 5]	Change (min) in the time stayed in preferred compartment [3, 5]	Change (min) in the time stayed in non-preferred compartment [3, 6]	Change (min) in the time stayed in preferred compartment [3, 6]	psychological dependence on tramadol (FIG. 9) ([3]; tramadol 37.5 mg (Comparative Example 5) or 100 mg (Comparative Example 6) compared to Test Example 2 (tramadol 25 mg) and Comparative Example 4 (tramadol 0 mg))	solubility in water [1]	blood half-life ([2]; in vivo)
Cc1ccc(-c2cc(C(F)(F)F)nn2-c2ccc(S(N)(=O)=O)cc2)cc1 [Celecoxib]	3.3 µg/mL (≈ 8.65 µM)	about 11 hours									
COc1cccc(C2(O)CCCCC2CN(C)C)c1 (centres unmarked) [tramadol]			1.3 min	-0.17 min	2.8 min	2.20 min	3.3 min	3.03 min	greatly increased	very soluble in water	about 6 hours

From patent US20200323780A1, “BILAYER COMBINATION TABLET FOR ORAL ADMINISTRATION CONTAINING TRAMADOL AND CELECOXIB” (KIMS HEALTHCARE CO., LTD., priority 2017, published 2020)
